Source: patent US9932339B2, “Helquats with heteroaromatic substituents, preparation thereof, and use thereof as G-quadruplex stabilizers” (USTAV ORGANICKE CHEMIE A BIOCHEMIE AV CR, V.V.I., priority 2014, dated 2018)

How the values were obtained:
[1] = test system: G-quadruplex oligonucleotide Fmyc27T (NHE III1 promoter region of c-myc oncogene); test: FRET melting of G-quadruplex oligonucleotide Fmyc27T with ligands; format: binding; conditions: for ΔTm (° C.) Fmyc27T/ds26 (° C.): helquat 1 μmol·l^−1, oligonucleotide 0.2 μmol·l^−1, 50-fold excess of double-stranded competitor ds26; for ΔTm (° C.) Fmyc27T: helquat 1 μmol·l^−1, oligonucleotide 0.2 μmol·l^−1, without competitor
Excerpt: (§1) To determine the degree of in vitro interactions of helquats with G-quadruplex(es), the oligonucleotides containing the guanine-rich sequences of human telomere (F21T) and NHE III1 promoter region of c-myc oncogene (Fmyc27T) were used. Both oligonucleotides capable of forming an intramolecular G-quadruplex were end-labeled with suitable fluorophores so as to form donor-acceptor FRET pair (5′-FAM and 3′-TAMRA). If the oligonucleotide is folded into the structure of the G-quadruplex, donor is in close proximity of acceptor and radiationless energy transfer to the acceptor occurs. With increasing temperature of the reaction mixture G-quadruplex structure gradually denatures and thus the donor and acceptor (FAM-TAMRA) drift apart. This leads to an increase in fluorescence of donor (FAM) and a decrease in fluorescence of acceptor (TAMRA).
(§2) The result of measurement is the curve of dependence of the intensity of fluorescence of the donor on the temperature. If the G-quadruplex is stabilized by ligand, melting temperature will increase. Melting temperature of G-quadruplex corresponds to the temperature when 50% of the original amount of the folded G-quadruplex is denatured. The measurement outcome is the difference in the melting temperatures (ΔTm) of the G-quadruplex alone and the G-quadruplex stabilized by ligand. In case of Fmyc27T experiments were performed in cacodylate buffer (10 mmol·l^−1, pH=7.2) with KCl (5 mmol·l^−1) and LiCl (95 mmol·l^−1) oligonucleotide and in case of F21T oligonucleotide in cacodylate buffer (10 mmol·l^−1, pH=7.2) with KCl (25 mmol·l^−1) and LiCl (75 mmol·l^−1).
(§3) Both oligonucleotides were denatured for 5 minutes at 95° C. and subsequently allowed to cool to room temperature (3 hours) in the switched-off thermoblock. The final oligonucleotide concentration in the reaction mixture was 0.2 μmol·l^−1. Test helquats were present at concentrations of 1 μmol·l^−1. The total reaction volume was 30 μl. The melting temperature of the oligonucleotides alone (without the presence of helquats) under these conditions was 58.1±0.2° C. for F21T and 64.7±0.4° C. for Fmyc27T. For determining the selectivity of binding of helquats to G-quadruplex in comparison with the double-stranded DNA, 50-fold excess of double-stranded DNA ([…] unlabeled competitor ds26 forming a hairpin) is added to the reaction mixture. After the addition to the reaction mixture ds26 competes with labeled oligonucleotide (Fmyc27T or F21T) for ligand binding. […] Melting temperature of oligonucleotides alone in the presence of the competitor is 59.4±0.5° C. for F21T and 66.3° C.±0.6° C. for Fmyc27T.
(§4) Fluorescence of FAM donor was measured using real-time PCR apparatus Opticon 2 (excitation 470-505 nm and emission 523-543 nm) in temperature increments of 0.5° C. in the range 25 to 95° C. Evaluation of the sigmoid curves of fluorescence intensity dependent on the temperature were performed in GraphPad Prism 5 (GraphPad Software, Inc., USA). Using nonlinear five parametric regression the inflection point on the curve was calculated that corresponds to the melting temperature (Tm) of the G-quadruplex under the given conditions. The values were obtained from at least three independent measurements.

[2] = test system: G-quadruplex oligonucleotide F21T (human telomere); test: FRET melting of G-quadruplex oligonucleotide F21T with ligands; format: binding; conditions: for ΔTm (° C.) F21T/ds26: helquat 1 μmol·l^−1, oligonucleotide 0.2 μmol·l^−1, 50-fold excess of double-stranded competitor ds26; for ΔTm (° C.) F21T: helquat 1 μmol·l^−1, oligonucleotide 0.2 μmol·l^−1, without competitor
Excerpt: as §1, §2, §3, §4

[3] = test system: c-myc protein; test: Immunodetection of protein c-myc in HGC-27 cell lysates (Western blot); format: cell-based, human; conditions: 50 μmol · l^−1, 24 hour incubation, normalized to β-actin
Method: Determination of changes in c-myc protein expression (transcription factor) in cell lysates prepared from tumor cell line HGC-27 after treatment with test helquats (Tab. 7) was carried out by immunodetection after separation of proteins according to their size by gel electrophoresis (SDS-PAGE) and blotting.
To determine the influence helquats on expression of c-myc protein, the cells were cultured under standard conditions and in the exponential growth phase were seeded into flasks at a density of 25,000 cells/cm^2. The next day selected helquats were added at a concentration of 50 μmol·l^−1. After 24 hour incubation, the cell pellets were obtained and, after addition of RIPA buffer with protease inhibitors (PrIC) and phosphatases (PhIC) (for composition see Tab. 8) cell lysates were prepared. 150 μl of RIPA buffer was used for 10^7 cells. Protein concentrations in the lysates were measured by BCA method. Separation of proteins in the lysates was carried out on a 12% denaturing polyacrylamide gel. The separated proteins were transferred to PVDF membrane by Western blotting.
Incubation with primary mouse monoclonal antibody against the protein c-myc (dilution 1:1000 in “SignalBoost” reagent) was carried out overnight at 4° C., and then with the primary mouse anti-β-actin (1:5000 dilution in 5% milk in TBS-T buffer) at room temperature for 2 hours. Subsequently, the secondary horse monoclonal antibody conjugated to horseradish peroxidase (diluted 1:2000 in 5% milk in TBS-T buffer) binding to mouse IgG antibody was applied. C-myc proteins and β-actin bound to the membrane were visualized using detection kit (SuperSignal® West Femto Maximum Sensitivity Substrate, Cat. No. 34095, Thermo Fisher Scientific, Inc., USA) in the chemiluminescence detection system ImageQuant LAS 4000 Mini (Cat. No. 28-9558-13, GE Healthcare Life Sciences, USA). The amount of protein was quantified by densitometry in Quantity One software. The amount of c-myc in the samples was normalized to β-actin, and subsequently related to a control sample.

[4] = test system: G-quadruplex in promoter region of the c-myc gene (NHE III1 segment); test: Dual luciferase analysis with plasmid pGL4.10-myc (luc2) in HGC-27 cells; format: cell-based, human; conditions: Homo sapiens; for inhibition at 50 µM: HGC-27, text summary of tab. 5 (50 μmol·l^−1), read-out: inhibition of expression of firefly luciferase as compared to control; for activity at 50 µM: helquat 50 μmol · l^−1, HGC-27, firefly normalized to Renilla, 24 hours after transfection, read-out: luciferase expression relative to control (control = 100%)
Excerpt: A dual luciferase analysis was used to determine the degree of stabilization of G-quadruplex in a promoter region of the c-myc gene on cellular level. Stabilization of G-quadruplex is expressed as the ratio of expression of two luciferases (firefly and Renilla) from the co-transfected vectors pGL4.10-myc (luc2) and pRL-TK (Renilla) into a cell line HGC-27 expressing c-myc protein. Expression of the reporter gene (firefly luciferase) from pGL4.10-myc vector is controlled by the c-myc regulatory region of a length of 860 by (in the range from −306 to +554). The inserted sequence contains NHE III1 segment which forms G-quadruplex [Yang, D. et al. (2010) Future Med Chem., 2, 619], and is responsible for as much as 90% of the transcriptional activity of the c-myc gene.
Level of expression of firefly luciferase reporter gene corresponds to promoter activity of c-myc and thus to the degree of stabilization of the G-quadruplex. The signal is normalized to Renilla luciferase expression from pRL-TK vector under the control of a constitutive viral thymidine kinase (HSV-TK) promoter. The amount of Renilla luciferase expression serves as an internal control for normalization of firefly signal on transfection efficiency in the sample. Plasmids pGL4.10-myc (luc2) and pRL-TK were propagated in Escherichia coli (DH5α strain) and purified using the Qiagen Plasmid Mini and Midi kits. Cells were cultured under standard conditions and in exponential growth phase were seeded into a white 96-well microtiter plates. Transfection was carried out using a transfection reagent X-tremeGENE HP DNA in OptiMEM media for two hours. The ratio of reporter and control vector was 1:1 and the ratio of transfection reagent to the total amount of DNA was 1:1. Two hours after transfection helquats were added in a concentration of 50 μmol·l^−1. Quantity of firefly and Renilla luciferases in the samples was determined 24 hours after transfection. Dual luciferase analysis was performed using a commercially available kit (Promega, cat. No. E1960) according to manufacturer's instructions. Luminescence was measured using a luminometer EnSpire Alpha Plate Reader. The data obtained were normalized to the Renilla luciferase signal and then the values were related to control.

Cc1c(C)c2c(c3c1CC[n+]1ccc(/C=C/c4c(-c5ccccc5)[nH]c5ccccc45)cc1-3)-c1cc(/C=C/c3c(-c4ccccc4)[nH]c4ccccc34)cc[n+]1CC2 [PDB-C15-8, 8,9-dimethyl-2,15-bis((E)-2-(2-phenyl-1H-indol-3-yl)vinyl)-6,7,10,11-tetrahydrodipyrido[2,1-a:1′,2′-k][2,9]phenanthroline-5,12-diium trifluoromethanesulfonate]
ΔTm (° C.) Fmyc27T/ds26 (° C.) [1]: 14.5 °C | ΔTm (° C.) Fmyc27T [1]: 15.7 °C | ΔTm (° C.) F21T/ds26 [2]: 11.1 °C | ΔTm (° C.) F21T [2]: 11.3 °C

2,4,15,17-tetra((E)-(2-(1-methyl-1H-indol-2-yl)vinyl)-6,7,8,11,12,13-hexahydrodipyrido[1,2-a:1′,2′-a′]benzo[2,1-c:3,4-c′]bisazepindiium trifluoromethanesulfonate [PRC-C10-10]
c-myc protein expression relative to control (control = 100%) [3]: 71%

Cc1c(C)c2c(c3c1CC[n+]1ccc(/C=C/c4ccc(-n5c6ccccc6c6ccccc65)cc4)cc1-3)-c1c3ccccc3cc[n+]1CC2.O=S(=O)([O-])C(F)(F)F.O=S(=O)([O-])C(F)(F)F [MJA-C19-4, (E)-13-(4-(9H-carbazol-9-yl)styryl)-6,7-dimethyl-4,5,8,9-tetrahydroisoquinolino[1,2-a]pyrido[1,2-k][2,9]phenanthroline-3,10-diium trifluoromethanesulfonate]
c-myc protein expression relative to control (control = 100%) [3]: 81%

Cc1nc[nH]c1/C=C/c1cc[n+]2c(c1)-c1c(ccc3c1-c1cc(/C=C/c4[nH]cnc4C)cc[n+]1CC3)CC2.O=S(=O)([O-])C(F)(F)F.O=S(=O)([O-])C(F)(F)F [PDA-C5-11, 2,15-bis((E)-2-(4-methyl-1H-imidazol-5-yl)vinyl)-6,7,10,11-tetrahydrodipyrido[2,1-a:1′,2′-k][2,9]phenanthroline-5,12-diium trifluoromethanesulfonate]
c-myc protein expression relative to control (control = 100%) [3]: 80%

Brc1ccc2[nH]cc(/C=C/c3cc[n+]4c(c3)-c3c(ccc5c3-c3cc(/C=C/c6c[nH]c7ccc(Br)cc67)cc[n+]3CC5)CC4)c2c1.O=S(=O)([O-])C(F)(F)F.O=S(=O)([O-])C(F)(F)F [PDA-C9-30, 2,15-bis((E)-2-(5-bromo-1H-indol-3-yl)vinyl)-6,7,10,11-tetrahydrodipyrido[2,1-a:1′,2′-k][2,9]phenanthroline-5,12-diium trifluoromethanesulfonate]
ΔTm (° C.) Fmyc27T/ds26 (° C.) [1]: 16.0 °C | ΔTm (° C.) Fmyc27T [1]: 14.6 °C | ΔTm (° C.) F21T/ds26 [2]: 13.1 °C | ΔTm (° C.) F21T [2]: 12.3 °C

COc1ccc(/C=C/c2cc[n+]3c(c2)-c2c(c(C)c(C)c4c2-c2cccc(/C=C/c5ccc(OC)nc5OC)[n+]2CC4)CC3)c(OC)n1.O=S(=O)([O-])C(F)(F)F.O=S(=O)([O-])C(F)(F)F [MJB-C8-27, 2,13-bis((E)-2-(2,6-dimethoxypyridin-3-yl)vinyl)-8,9-dimethyl-6,7,10,11-tetrahydrodipyrido[2,1-a:1′,2′-k][2,9]phenanthroline-5,12-diium trifluoromethanesulfonate]
ΔTm (° C.) Fmyc27T/ds26 (° C.) [1]: 10.0 °C | ΔTm (° C.) Fmyc27T [1]: 9.7 °C | ΔTm (° C.) F21T/ds26 [2]: 5.2 °C | ΔTm (° C.) F21T [2]: 8.0 °C | inhibition at 50 µM [4]: > 10% | activity at 50 µM [4]: 88%

Cn1cc(/C=C/c2cc[n+]3c(c2)-c2c(ccc4c2-c2cc(/C=C/c5cn(C)c6ccccc56)cc[n+]2CC4)CC3)c2ccccc21 [PDA-C10-13, 2,15-bis((E)-2-(1-methyl-1H-indol-3-yl)vinyl)-6,7,10,11-tetrahydrodipyrido[2,1-a:1′,2′-k][2,9]phenanthroline-5,12-diium trifluoromethanesulfonate]
ΔTm (° C.) Fmyc27T/ds26 (° C.) [1]: 13.6 °C | ΔTm (° C.) Fmyc27T [1]: 13.8 °C | ΔTm (° C.) F21T/ds26 [2]: 9.1 °C | ΔTm (° C.) F21T [2]: 9.7 °C

COc1ccc(/C=C/c2cc[n+]3c(c2)-c2c(ccc4c2-c2cc(/C=C/c5ccc(OC)nc5OC)cc[n+]2CC4)CC3)c(OC)n1 [PDA-C8-27, 2,15-bis((E)-2-(2,6-dimethoxypyridin-3-yl)vinyl)-6,7,10,11-tetrahydrodipyrido[2,1-a:1′,2′-k][2,9]phenanthroline-5,12-diium trifluoromethanesulfonate]
ΔTm (° C.) Fmyc27T/ds26 (° C.) [1]: 9.6 °C | ΔTm (° C.) Fmyc27T [1]: 11.8 °C | ΔTm (° C.) F21T/ds26 [2]: 7.0 °C | ΔTm (° C.) F21T [2]: 9.3 °C | inhibition at 50 µM [4]: > 20% | activity at 50 µM [4]: 77%
